Data reported in US9040035B2, “Treatment of pain using placental stem cells” (ANTHROGENESIS CORPORATION, priority 2011, dated 2015).

Columns and labels:
[1] = tested on: motor sensory coordination; test: Sciatic nerve chronic constriction injury (CCI) in rats, Rotarod test; type: in vivo, rat; conditions: 100 mg/ml, 0.25 ml IP
Text: (§1) Seventy seven male Sprague Dawley rats, 3 months old, approximately 200-250 g at study initiation were included in the study. Minimum and maximum weights of the group were within a range of ±20% of group mean weight. Following several days of habituation the rats underwent baseline measurements for pain behavior (tactile-allodynia) and motor sensory assessment (rotarod test). All the rats underwent Sciatic nerve chronic constriction injury (CCI); pain development was verified on the 6th day following the operation and sensory motor behavior on the 7th. On the 8th day following the procedure the rats were assigned randomly to the various treatment groups (Table 5). Pain levels were assessed on the 6th, 10th, 16th, 25th and 30th days following the procedure. Motor sensory coordination was assessed on the 11th, 21st, 26th and 34th days. On the 35th day the rats were euthanized, the sciatic nerves (both sides) were collected and embedded in paraffin. […]
Motor sensory coordination was evaluated with the Rotarod Test. […] The rodent's ability to remain on the rotating rod is recorded (time in seconds). […]
(§2) Data were tabulated and analyzed using StatView software version 5.0 (SAS Institute Inc., San Francisco, Calif., USA). […] Behavioral statistics were calculated only for rats with data at all time points. […]

[2] = tested on: Sciatic nerve chronic constriction injury; test: Sciatic nerve chronic constriction injury (CCI) in rats, tactile allodynia test; type: in vivo, rat; conditions: 100 mg/ml, 0.25 ml IP; days 10, 16, 25 and 30
Text: as §1, with “days.” for “days. On the 35th day the rats were euthanized, the sciatic nerves (both sides) were collected and embedded in paraffin.”
Pain level was evaluated using a Tactile allodynia test. In this test, the withdrawal response to calibrated Von Frey fibers is measured. […] Each fiber was applied to the paw five times and a percentage score of responses was calculated (see Flatters et al., Pain, 2004, 109:150-161). […]
as §2

SMILES: NCC1(CC(=O)O)CCCCC1 [gabapentin]
- time spent on the rotarod (motor sensory coordination) [1]: significant reduction in the time spent on the rotarod
- pain (responses to 26 g stimuli) compared to day 6 [2]: significantly reduced the pain
